Measurements published in ChEMBL document CHEMBL1201862, “PubChem BioAssay data set” (2004).
Calls of active or inactive are those of the source.

Legend:
[1] = target: T1, G-protein coupled receptor 55 (Homo sapiens, UniProt Q9Y2T6); assay: selective activators of receptor GPR55 – imaging, U2OS cells, beta-arrestin-GFP redistribution, primary screen (AID 1961); assay type: functional
Aminopeptidase N = target: T2, Aminopeptidase N (Plasmodium falciparum FcB1/Columbia, UniProt O96935); assay: malaria alanyl aminopeptidase activity blockers – biochemical, fluorogenic H-Leu-NHMec substrate, 1536-well (AID 1445); set-up: species or system Plasmodium falciparum 3D7, 3D7
T2 sequence (O96935 whole entry): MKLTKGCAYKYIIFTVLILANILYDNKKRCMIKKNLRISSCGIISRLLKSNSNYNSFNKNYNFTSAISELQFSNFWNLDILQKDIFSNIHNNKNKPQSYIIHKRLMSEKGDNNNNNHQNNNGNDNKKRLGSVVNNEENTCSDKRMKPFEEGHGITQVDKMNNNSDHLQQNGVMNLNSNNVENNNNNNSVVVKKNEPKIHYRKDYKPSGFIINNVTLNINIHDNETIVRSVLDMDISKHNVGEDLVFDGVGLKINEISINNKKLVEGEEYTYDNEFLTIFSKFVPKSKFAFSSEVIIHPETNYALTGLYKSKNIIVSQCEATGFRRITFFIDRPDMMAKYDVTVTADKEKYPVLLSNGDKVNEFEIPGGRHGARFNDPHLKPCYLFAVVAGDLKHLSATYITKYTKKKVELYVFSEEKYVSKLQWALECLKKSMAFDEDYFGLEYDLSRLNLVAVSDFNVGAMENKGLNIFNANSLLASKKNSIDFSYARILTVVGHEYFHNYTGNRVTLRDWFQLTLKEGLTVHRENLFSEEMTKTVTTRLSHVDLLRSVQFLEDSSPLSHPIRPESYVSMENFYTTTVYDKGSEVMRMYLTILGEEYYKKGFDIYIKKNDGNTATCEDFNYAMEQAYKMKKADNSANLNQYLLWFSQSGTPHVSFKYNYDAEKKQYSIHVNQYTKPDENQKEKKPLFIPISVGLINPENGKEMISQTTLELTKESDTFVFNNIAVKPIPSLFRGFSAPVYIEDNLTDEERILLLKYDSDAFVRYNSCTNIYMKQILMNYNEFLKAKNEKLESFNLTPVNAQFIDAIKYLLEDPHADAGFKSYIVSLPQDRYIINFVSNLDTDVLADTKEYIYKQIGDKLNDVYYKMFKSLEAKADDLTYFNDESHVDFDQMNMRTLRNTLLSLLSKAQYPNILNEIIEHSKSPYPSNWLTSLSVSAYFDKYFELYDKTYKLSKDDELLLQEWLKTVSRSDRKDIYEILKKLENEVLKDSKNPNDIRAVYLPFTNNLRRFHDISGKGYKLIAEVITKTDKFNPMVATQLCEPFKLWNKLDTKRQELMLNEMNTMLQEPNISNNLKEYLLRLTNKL

[2] = target: T1, G-protein coupled receptor 55; assay: inhibition of LPI-stimulated GPR55 beta-arrestin translocation – imaging, U2OS, beta-arrestin-GFP, LPI agonist, primary screen (AID 2013); assay type: functional;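 note: antagonist potency measured as reduced agonist-driven arrestin aggregation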
[3] = tested on: Streptococcus sp. 'group A'; assay: Streptococcus pyogenes SK(-)GAS viability under kanamycin – luminescence, BacTiterGlo, confirmation, counter-screen for streptokinase expression inhibitor project, dose response (AID 1900); assay type: functional, organism-based
Streptokinase A = target: T3, Streptokinase A (Streptococcus pyogenes serotype M1, UniProt P10520); assay: viability-normalized secreted streptokinase activity reduction – plasminogen activation absorbance, OD405, dose response (AID 1914); assay type: functional, Streptococcus pyogenes M1 GAS;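 note: secreted streptokinase activity via plasminogen activation per viability signal from cell pellet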
T3 sequence (P10520 whole entry): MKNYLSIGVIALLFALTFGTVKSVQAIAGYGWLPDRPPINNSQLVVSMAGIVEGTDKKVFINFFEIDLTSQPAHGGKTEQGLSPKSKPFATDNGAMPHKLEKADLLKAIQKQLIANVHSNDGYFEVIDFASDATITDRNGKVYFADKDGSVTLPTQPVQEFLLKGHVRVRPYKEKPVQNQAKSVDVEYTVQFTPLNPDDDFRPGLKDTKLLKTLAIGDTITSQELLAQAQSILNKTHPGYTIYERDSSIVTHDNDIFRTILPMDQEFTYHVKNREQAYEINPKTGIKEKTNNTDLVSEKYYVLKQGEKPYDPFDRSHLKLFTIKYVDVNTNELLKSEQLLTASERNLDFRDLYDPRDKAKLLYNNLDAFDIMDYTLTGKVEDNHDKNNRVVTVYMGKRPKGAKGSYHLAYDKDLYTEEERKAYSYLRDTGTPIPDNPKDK

[4] = HPDE-C7 pancreatic duct cell viability loss – fluorescence, HTS (AID 430); assay type: functional, cell-based; conditions: Homo sapiens
[5] = viability loss of HPDE-C7K cells – cell-based, fluorescence, HTS, primary screen (AID 431); assay type: functional; conditions: Homo sapiens
Streptococcus = assay: GAS UMAA2166 growth inhibition – luminescence, BacTiterGlo, counter-screen for streptokinase expression inhibitor project, dose response (AID 1915); assay type: functional, organism-based;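 note: potency for reduction of bacterial viability or growth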
[6] = target: Voltage-dependent T-type calcium channel subunit alpha-1H (Homo sapiens, UniProt O95180); assay type: functional;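 note: channel activity triggered by adding a high calcium stimulation buffer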
Cytochrome P450 3A4 [7] = target: T4, Cytochrome P450 3A4 (Homo sapiens, UniProt P08684)
Cytochrome P450 3A4 [8] = target: T4, Cytochrome P450 3A4; conditions: Potency
[9] = target: Peroxisome proliferator-activated receptor gamma/Nuclear receptor coactivator 2 (Homo sapiens, UniProt P37231); assay type: functional;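 note: agonist potency for raising coactivator recruitment to the receptor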
[10] = target: Peroxisome proliferator-activated receptor gamma/Nuclear receptor coactivator 1 (Homo sapiens, UniProt P37231); assay type: functional;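 note: agonist potency as compounds enhance coactivator SRC-1 recruitment to PPARgamma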
[11] = target: Peroxisome proliferator-activated receptor gamma/Nuclear receptor coactivator 3 (Homo sapiens, UniProt P37231); assay type: functional;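 note: agonist potency for raising coactivator recruitment to the receptor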
Bcl-2-related protein A1 = target: T5, Bcl-2-related protein A1 (Mus musculus, UniProt Q07440); assay type: functional;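 note: confirmatory dose–response counterscreen on Bfl-1, used to check hits from a UBC13 polyubiquitin inhibitor campaign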
T5 sequence (Q07440 whole entry): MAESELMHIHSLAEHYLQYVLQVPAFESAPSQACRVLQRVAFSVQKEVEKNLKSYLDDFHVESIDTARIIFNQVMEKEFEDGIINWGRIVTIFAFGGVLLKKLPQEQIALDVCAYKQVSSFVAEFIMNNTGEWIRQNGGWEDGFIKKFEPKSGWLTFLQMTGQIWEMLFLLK

[12] = target: T6, Ubiquitin-conjugating enzyme E2 N (Homo sapiens, UniProt P61088); assay type: functional
T6 sequence (P61088 whole entry): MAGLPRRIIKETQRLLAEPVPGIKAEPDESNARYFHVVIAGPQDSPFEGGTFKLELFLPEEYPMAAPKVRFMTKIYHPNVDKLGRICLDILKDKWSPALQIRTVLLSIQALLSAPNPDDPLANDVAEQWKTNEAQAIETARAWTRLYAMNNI

[13] = target: T6, Ubiquitin-conjugating enzyme E2 N; assay type: functional; remark: listed apart in the source
Galanin receptor type 3 = target: T7, Galanin receptor type 3 (Homo sapiens, UniProt O60755); assay: Fluorescence-based cell-based primary high throughput dose response assay to identify antagonists of the Galanin Receptor 3 (GalR3).; assay type: functional
T7 sequence (O60755 whole entry): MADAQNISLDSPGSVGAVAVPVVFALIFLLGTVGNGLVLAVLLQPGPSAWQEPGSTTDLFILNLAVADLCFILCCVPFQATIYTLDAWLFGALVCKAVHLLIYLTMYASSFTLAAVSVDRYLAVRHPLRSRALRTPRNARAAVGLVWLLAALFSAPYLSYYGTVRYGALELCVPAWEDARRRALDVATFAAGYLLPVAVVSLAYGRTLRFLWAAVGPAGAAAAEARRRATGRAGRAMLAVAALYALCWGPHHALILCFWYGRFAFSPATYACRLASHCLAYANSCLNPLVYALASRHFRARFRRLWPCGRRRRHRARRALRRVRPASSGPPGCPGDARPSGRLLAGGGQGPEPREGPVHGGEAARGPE

cells = assay type: functional, cell-based; conditions: HEK-CNG

T1 sequence (Q9Y2T6 whole entry): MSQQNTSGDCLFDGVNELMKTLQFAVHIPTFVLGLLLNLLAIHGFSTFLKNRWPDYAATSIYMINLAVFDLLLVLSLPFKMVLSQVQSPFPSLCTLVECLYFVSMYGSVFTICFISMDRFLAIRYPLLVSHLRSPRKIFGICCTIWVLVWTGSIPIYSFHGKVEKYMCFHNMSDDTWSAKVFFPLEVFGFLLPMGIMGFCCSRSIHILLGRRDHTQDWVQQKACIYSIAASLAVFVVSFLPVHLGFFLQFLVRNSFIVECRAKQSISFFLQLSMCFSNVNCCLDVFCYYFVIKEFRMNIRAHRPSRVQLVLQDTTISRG
T4 sequence (P08684 whole entry): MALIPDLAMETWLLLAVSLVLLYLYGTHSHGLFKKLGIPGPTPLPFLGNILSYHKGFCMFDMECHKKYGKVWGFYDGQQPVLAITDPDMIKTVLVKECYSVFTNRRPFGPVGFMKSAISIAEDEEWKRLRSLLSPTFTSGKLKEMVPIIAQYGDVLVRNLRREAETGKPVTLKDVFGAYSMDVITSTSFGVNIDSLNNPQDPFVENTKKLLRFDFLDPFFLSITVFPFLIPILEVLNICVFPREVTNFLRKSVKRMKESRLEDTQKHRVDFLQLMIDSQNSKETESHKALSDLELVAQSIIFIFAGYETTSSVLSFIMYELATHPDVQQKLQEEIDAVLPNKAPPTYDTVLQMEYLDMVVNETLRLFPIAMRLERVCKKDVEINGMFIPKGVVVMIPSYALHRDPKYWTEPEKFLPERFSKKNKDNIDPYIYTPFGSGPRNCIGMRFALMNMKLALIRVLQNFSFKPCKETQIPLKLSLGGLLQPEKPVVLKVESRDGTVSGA
Chain of Peroxisome proliferator-activated receptor gamma/Nuclear receptor coactivator 1 (P37231 whole entry): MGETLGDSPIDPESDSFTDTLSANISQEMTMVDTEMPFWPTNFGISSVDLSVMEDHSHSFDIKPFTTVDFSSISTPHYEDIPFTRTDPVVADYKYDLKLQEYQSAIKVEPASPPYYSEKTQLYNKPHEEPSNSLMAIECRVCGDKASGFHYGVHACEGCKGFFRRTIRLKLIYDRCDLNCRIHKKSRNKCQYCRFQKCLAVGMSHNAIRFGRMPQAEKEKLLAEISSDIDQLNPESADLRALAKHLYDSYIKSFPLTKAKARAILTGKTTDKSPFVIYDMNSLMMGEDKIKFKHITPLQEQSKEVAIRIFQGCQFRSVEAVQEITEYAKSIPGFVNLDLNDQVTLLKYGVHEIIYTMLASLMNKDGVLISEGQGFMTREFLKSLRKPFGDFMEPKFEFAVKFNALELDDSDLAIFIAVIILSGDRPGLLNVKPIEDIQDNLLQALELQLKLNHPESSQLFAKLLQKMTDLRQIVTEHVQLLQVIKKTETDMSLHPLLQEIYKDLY
Chain of Peroxisome proliferator-activated receptor gamma/Nuclear receptor coactivator 1 (Q15788 whole entry, further chain): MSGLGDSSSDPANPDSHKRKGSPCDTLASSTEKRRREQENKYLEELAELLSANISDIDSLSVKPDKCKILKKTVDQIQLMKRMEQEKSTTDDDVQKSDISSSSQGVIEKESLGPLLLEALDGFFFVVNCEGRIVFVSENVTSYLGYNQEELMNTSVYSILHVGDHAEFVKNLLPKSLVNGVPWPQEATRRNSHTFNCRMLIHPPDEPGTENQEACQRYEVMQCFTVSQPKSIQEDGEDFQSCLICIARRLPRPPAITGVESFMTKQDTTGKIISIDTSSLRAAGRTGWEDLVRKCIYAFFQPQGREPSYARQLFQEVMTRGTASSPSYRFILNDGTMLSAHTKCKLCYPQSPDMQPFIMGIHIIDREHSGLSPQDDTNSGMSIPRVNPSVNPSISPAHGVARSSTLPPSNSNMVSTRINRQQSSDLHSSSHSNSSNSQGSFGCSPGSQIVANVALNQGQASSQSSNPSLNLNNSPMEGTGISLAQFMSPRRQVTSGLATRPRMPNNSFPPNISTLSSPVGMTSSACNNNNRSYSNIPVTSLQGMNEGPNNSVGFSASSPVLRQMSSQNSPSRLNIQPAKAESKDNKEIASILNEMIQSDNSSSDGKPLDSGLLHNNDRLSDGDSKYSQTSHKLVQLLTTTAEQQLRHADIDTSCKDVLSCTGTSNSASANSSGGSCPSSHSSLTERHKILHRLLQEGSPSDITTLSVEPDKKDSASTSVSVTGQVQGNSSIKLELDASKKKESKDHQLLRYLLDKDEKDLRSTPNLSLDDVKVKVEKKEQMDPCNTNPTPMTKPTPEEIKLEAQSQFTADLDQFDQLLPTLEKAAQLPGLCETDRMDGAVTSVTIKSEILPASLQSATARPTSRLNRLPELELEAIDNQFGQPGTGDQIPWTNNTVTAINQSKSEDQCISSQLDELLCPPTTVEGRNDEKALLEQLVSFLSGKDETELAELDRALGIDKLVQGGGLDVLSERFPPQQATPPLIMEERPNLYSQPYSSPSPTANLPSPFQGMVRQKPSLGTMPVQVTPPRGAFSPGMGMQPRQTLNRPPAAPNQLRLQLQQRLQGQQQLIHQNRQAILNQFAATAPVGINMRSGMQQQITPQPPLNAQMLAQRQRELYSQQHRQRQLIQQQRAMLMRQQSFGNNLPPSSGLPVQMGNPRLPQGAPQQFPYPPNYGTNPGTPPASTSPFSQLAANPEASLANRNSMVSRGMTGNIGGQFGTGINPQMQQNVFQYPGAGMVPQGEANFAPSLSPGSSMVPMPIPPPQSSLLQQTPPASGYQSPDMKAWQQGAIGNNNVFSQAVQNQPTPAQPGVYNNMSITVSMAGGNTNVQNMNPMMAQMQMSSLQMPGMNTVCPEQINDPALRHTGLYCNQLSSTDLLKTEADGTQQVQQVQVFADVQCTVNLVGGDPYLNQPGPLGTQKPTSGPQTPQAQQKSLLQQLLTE
Chain of Peroxisome proliferator-activated receptor gamma/Nuclear receptor coactivator 3 (P37231 whole entry): as the sequence (P37231 whole entry) above
Chain of Peroxisome proliferator-activated receptor gamma/Nuclear receptor coactivator 3 (Q9Y6Q9 whole entry, further chain): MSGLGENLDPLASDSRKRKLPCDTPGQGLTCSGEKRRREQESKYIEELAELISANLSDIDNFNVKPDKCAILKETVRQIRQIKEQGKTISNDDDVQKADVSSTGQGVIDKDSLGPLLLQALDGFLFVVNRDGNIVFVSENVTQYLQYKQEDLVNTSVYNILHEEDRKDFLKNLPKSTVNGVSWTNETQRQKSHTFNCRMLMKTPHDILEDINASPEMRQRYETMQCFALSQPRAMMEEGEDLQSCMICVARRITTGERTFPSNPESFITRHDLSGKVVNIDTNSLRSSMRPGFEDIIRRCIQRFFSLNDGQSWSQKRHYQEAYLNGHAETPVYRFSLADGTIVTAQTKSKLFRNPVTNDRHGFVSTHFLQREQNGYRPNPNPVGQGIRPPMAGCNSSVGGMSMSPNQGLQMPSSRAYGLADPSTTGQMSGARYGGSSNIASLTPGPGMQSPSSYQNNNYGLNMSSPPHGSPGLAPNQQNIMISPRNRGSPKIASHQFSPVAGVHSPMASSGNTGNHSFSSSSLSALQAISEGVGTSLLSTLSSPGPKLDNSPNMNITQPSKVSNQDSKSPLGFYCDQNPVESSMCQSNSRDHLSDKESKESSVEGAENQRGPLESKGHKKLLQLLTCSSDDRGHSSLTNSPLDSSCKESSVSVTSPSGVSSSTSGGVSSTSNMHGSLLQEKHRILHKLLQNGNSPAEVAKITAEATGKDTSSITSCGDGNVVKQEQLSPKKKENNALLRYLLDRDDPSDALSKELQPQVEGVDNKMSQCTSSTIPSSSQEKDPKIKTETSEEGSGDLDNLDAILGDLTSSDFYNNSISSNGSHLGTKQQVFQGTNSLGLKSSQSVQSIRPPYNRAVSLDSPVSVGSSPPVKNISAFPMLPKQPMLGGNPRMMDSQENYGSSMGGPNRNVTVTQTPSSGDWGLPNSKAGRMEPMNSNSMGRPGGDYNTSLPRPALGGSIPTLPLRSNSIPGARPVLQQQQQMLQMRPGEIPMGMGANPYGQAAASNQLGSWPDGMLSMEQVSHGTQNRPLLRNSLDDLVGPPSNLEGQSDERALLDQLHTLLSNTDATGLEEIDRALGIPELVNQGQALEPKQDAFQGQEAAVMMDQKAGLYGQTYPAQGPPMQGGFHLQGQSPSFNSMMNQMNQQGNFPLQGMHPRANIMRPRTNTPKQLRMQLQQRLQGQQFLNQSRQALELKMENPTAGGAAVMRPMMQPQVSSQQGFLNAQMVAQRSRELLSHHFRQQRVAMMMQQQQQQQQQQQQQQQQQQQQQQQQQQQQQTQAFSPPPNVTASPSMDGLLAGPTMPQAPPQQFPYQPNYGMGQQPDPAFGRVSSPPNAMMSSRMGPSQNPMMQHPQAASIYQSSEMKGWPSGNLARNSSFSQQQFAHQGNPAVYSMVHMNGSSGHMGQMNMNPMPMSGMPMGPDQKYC

Compound: CC1CCN(Cc2c(C(=O)N/N=C/c3ccc(OC(C)C)cc3)nnn2-c2nonc2N)CC1
- EC50 [1]: 3.41 µM (active)

Compound: CCCN(CCC)C(=O)CSc1nc2c(sc(=S)n2-c2ccc(OCC)cc2)c(=O)[nH]1
- IC50 (Aminopeptidase N): 68.3 µM (active)
- IC50 [2]: 1.77 µM (active)

Compound: CN1C(=O)/C(=C/c2c[nH]nc2-c2ccccc2)SC1=S
- IC50 [2]: 0.653 µM (active)

Compound: CCCCCn1c(CN2CCN(c3cc(Cl)ccc3C)CC2)nc2c1c(=O)[nH]c(=O)n2C
- EC50 [3]: 4.65 µM (active)
- EC50 (Streptokinase A): > 150 µM (not active)
- EC50 [4]: 12.8 µM (active)
- EC50 [5]: > 20 µM (not active)
- EC50 (Streptococcus): 5.85 µM (active)
- EC50 [1]: 4.7 µM (active)
- EC50 [6]: 5.57 µM (active)
- AC50 (Cytochrome P450 3A4 [7]): 2.24 µM (inconclusive)

Compound: COc1ccc(-c2nc3c(c4c2CC(C)OC4)CN(CCC(C)C)CC3)cc1 (stereo not given)
- AC50 (Cytochrome P450 3A4 [8]): 3.16 µM (inconclusive)

Compound: CC1(C)Cc2c(C#N)c(SCC(=O)c3ccccc3)nc(N3CCOCC3)c2CO1
- EC50 [9]: 79.4 µM (not active)
- EC50 [10]: > 79.4 µM (not active)
- EC50 [11]: > 79.4 µM (not active)

Compound: O=C(NCC1CCN(Cc2ccc(Cl)cc2)CC1)C1CCCN(c2ncnc3c2nc2n3CCCCC2)C1 (stereo not given)
- IC50 (Bcl-2-related protein A1): > 20 µM (inactive)
- IC50 [12]: 7.67 µM (active)
- IC50 [13]: 8.14 µM (active)
- IC50 (Galanin receptor type 3): > 29.9 µM (inactive)
- EC50 (cells): > 29.9 µM (inactive)

Compound: COc1ccc(C)cc1N
- AC50 (Cytochrome P450 3A4 [8]): 31.6 µM (inconclusive)

Compound: CC(=O)c1cccc(NC(=O)c2cc3ccccn3n2)c1
- EC50 [9]: > 79.4 µM (not active)
- EC50 [10]: > 79.4 µM (not active)
- EC50 [11]: > 79.4 µM (not active)
